According to patent US9878978B2, “Processes for the diazotization of 2,5-dichloroanilines” (priority 2013, dated 2018):

Experiments:
[1] = acetic acid/sulfuric acid reaction mixture stored at room temperature for two weeks
[2] = 2,5-Dichlorophenol stability at 120° C. with or without sodium nitrite and sulfamic acid; type: physicochemical; details: 120° C. in the various solvents, without sodium nitrite
Description: In this study, 2,5-dichlorophenol was stirred at 120° C. in the presence or absence of sodium nitrite and/or sulfamic acid. The 2,5-dichlorophenol itself was stable and either dissolved or melted in the various solvents at 120° C. Upon addition of sodium nitrite to the solution and heating at 120° C. for 30 minutes, all of the solutions had some byproduct formation. The experiments were repeated with sulfamic acid added at 1.1 times the sodium nitrite equivalents with heating to 120° C. for 30 minutes as before. Byproduct formation was reduced, and only the solutions containing sulfuric acid had byproducts.

[3] = Solubility study of 2,5-dichloroaniline in different solvents; type: physicochemical
Description: Three different commercially available sources of 2,5-dichloroaniline (Sigma, Acros, and AlfaAesar) were evaluated for solubility in several different solvents under the specific conditions reported in Table 5-A. The 2,5-dichloroaniline obtained from Sigma was evaluated with and without milling.
In contrast, it was insoluble in concentrated hydrochloric acid, 75% sulfuric acid (weight/weight sulfuric acid/water), and formic acid at all temperatures tested. Although 2,5-dichloroaniline was soluble in concentrated sulfuric acid at 80° C., solubility at the lower temperatures tested still was limited. Milling the 2,5-dichloroaniline did appear to improve solubility in concentrated sulfuric acid.
When sulfuric acid was added to the milled or unmilled 2,5-dichloroaniline, the 2,5-dichloroaniline clumped up and formed a “crust” on itself. It is hypothesized that this crust is a 2,5-dichloroaniline sulfate salt that forms and creates a salt capsule enclosing the 2,5-dichloroaniline thereby further reducing 2,5-dichloroaniline solubility. With vigorous stirring by stir bar or paddle-equipped stir rod, the mixture containing the “crusted” 2,5-dichloroaniline typically can be converted to a slurry of the 2,5-dichloroaniline sulfate salt.

N#[N+]c1cc(Cl)ccc1Cl [2,5-Dichlorobenzene diazonium, 2,5-dichlorobenzenediazonium]
no degradation: Degradation on storage [1]

Oc1cc(Cl)ccc1Cl [2,5-dichlorophenol]
stable: Stability [2]

Nc1cc(Cl)ccc1Cl [2,5-dichloroaniline]
soluble: Solubility ([3]; concentrated sulfuric acid, 80° C.)
insoluble: Solubility ([3]; 75% sulfuric acid (weight/weight sulfuric acid/water), all temperatures tested) | Solubility ([3]; concentrated hydrochloric acid, all temperatures tested) | Solubility ([3]; formic acid, all temperatures tested)
readily soluble: Solubility ([3]; acetic acid, all temperatures) | Solubility ([3]; trifluoroacetic acid, all temperatures)
Soluble: Solubility ([3]; Acros, not milled, Conc. H2SO4, molarity 1.12, 25° C.) | Solubility ([3]; Acros, not milled, Conc. H2SO4, molarity 1.12, 80° C.) | Solubility ([3]; Acros, not milled, Conc. H2SO4, molarity 2.24, 80° C.) | Solubility ([3]; Acros, not milled, Glacial Acetic Acid, molarity 1.12, 10° C.) | Solubility ([3]; Acros, not milled, Glacial Acetic Acid, molarity 1.12, 25° C.) | Solubility ([3]; Acros, not milled, Glacial Acetic Acid, molarity 1.12, 80° C.) | Solubility ([3]; Acros, not milled, Glacial Acetic Acid, molarity 2.24, 10° C.) | Solubility ([3]; Acros, not milled, Glacial Acetic Acid, molarity 2.24, 25° C.) | Solubility ([3]; Acros, not milled, Glacial Acetic Acid, molarity 2.24, 80° C.) | Solubility ([3]; AlfaAesar, not milled, Conc. H2SO4, molarity 1.12, 80° C.) | Solubility ([3]; AlfaAesar, not milled, Glacial Acetic Acid, molarity 2.24, 10° C.) | Solubility ([3]; AlfaAesar, not milled, Glacial Acetic Acid, molarity 2.24, 25° C.) | Solubility ([3]; AlfaAesar, not milled, Glacial Acetic Acid, molarity 2.24, 80° C.) | Solubility ([3]; Sigma, milled, Conc. H2SO4, molarity 0.58, 10° C.) | Solubility ([3]; Sigma, milled, Conc. H2SO4, molarity 0.58, 25° C.) | Solubility ([3]; Sigma, milled, Conc. H2SO4, molarity 1.16, 10° C.) | Solubility ([3]; Sigma, milled, Conc. H2SO4, molarity 1.16, 25° C.) | Solubility ([3]; Sigma, milled, Conc. H2SO4, molarity 2.13, 10° C.) | Solubility ([3]; Sigma, milled, Conc. H2SO4, molarity 2.13, 25° C.) | Solubility ([3]; Sigma, milled, Glacial Acetic Acid, molarity 1.16, 10° C.) | Solubility ([3]; Sigma, milled, Glacial Acetic Acid, molarity 1.16, 25° C.) | Solubility ([3]; Sigma, milled, Glacial Acetic Acid, molarity 2.24, 10° C.) | Solubility ([3]; Sigma, milled, Glacial Acetic Acid, molarity 2.24, 25° C.) | Solubility ([3]; Sigma, not milled, Conc. H2SO4, molarity 2.24, 80° C.) | Solubility ([3]; Sigma, not milled, Glacial Acetic Acid, molarity 2.24, 25° C.) | Solubility ([3]; Sigma, not milled, Glacial Acetic Acid, molarity 2.24, 80° C.) | Solubility ([3]; Sigma, not milled, Trifluoracetic Acid, molarity 2.24, 10° C.) | Solubility ([3]; Sigma, not milled, Trifluoracetic Acid, molarity 2.24, 25° C.) | Solubility ([3]; Sigma, not milled, Trifluoracetic Acid, molarity 2.24, 80° C.)
Insoluble: Solubility ([3]; Sigma, not milled, 75% H2SO4, molarity 2.24, 10° C.) | Solubility ([3]; Sigma, not milled, 75% H2SO4, molarity 2.24, 25° C.) | Solubility ([3]; Sigma, not milled, 75% H2SO4, molarity 2.24, 80° C.) | Solubility ([3]; Sigma, not milled, Conc. H2SO4, molarity 2.24, 10° C.) | Solubility ([3]; Sigma, not milled, Conc. H2SO4, molarity 2.24, 25° C.) | Solubility ([3]; Sigma, not milled, Conc. HCl, molarity 2.24, 10° C.) | Solubility ([3]; Sigma, not milled, Conc. HCl, molarity 2.24, 25° C.) | Solubility ([3]; Sigma, not milled, Conc. HCl, molarity 2.24, 80° C.) | Solubility ([3]; Sigma, not milled, Formic Acid (88%), molarity 2.24, 10° C.) | Solubility ([3]; Sigma, not milled, Formic Acid (88%), molarity 2.24, 25° C.) | Solubility ([3]; Sigma, not milled, Formic Acid (88%), molarity 2.24, 80° C.)
limited: Solubility ([3]; concentrated sulfuric acid, lower temperatures tested)
Partial: Solubility ([3]; Acros, not milled, Conc. H2SO4, molarity 1.12, 10° C.) | Solubility ([3]; Acros, not milled, Conc. H2SO4, molarity 2.24, 10° C.) | Solubility ([3]; Acros, not milled, Conc. H2SO4, molarity 2.24, 25° C.) | Solubility ([3]; AlfaAesar, not milled, Conc. H2SO4, molarity 1.12, 10° C.) | Solubility ([3]; AlfaAesar, not milled, Conc. H2SO4, molarity 1.12, 25° C.)
